Source: patent publication US20110008396A1, “COMPOSITIONS AND METHODS FOR TREATING CARDIOVASCULAR CONDITIONS” (Rutgers, the Sate University of New Jersey, priority 2007, published 2011)
“Also recorded” adds a separate entry of the source.

Tests used:
[1] = tested on: THP-1 macrophages; assay: hoxLDL efflux from macrophage cells; format: cell-based, human; conditions: GW3965 10^-8 M, NAPs 10^-6 M
Procedure: THP-1, human monocytes, are grown in suspension, with RPMI medium containing 0.4 mM Ca^2+ and Mg^2+, (ATCC) and supplemented with 10% FBS, in an incubator with 5% CO2 at 37 C and split every four days through centrifugation. The cells are seeded at a concentration of 100,000 cells/cm^2 to continue monocyte cultures and to differentiate the cells into macrophage cells. Once the monocytes have been differentiated into macrophage cells they will become adherent and can be tested. The macrophage cells can not be propagated and will be used within a week of differentiation.
Highly oxidized LDL will be oxidized within five days of each experiment. BODIPY-labeled and unlabeled human plasma derived LDL (Molecular Probes, OR) is oxidized by 18 hours of incubation with 10 uM CuSO4 (Sigma) at 37 C with 5% CO2. (Oorni 1997; Chang 2001) The oxidation will be stopped with 0.01% w/v EDTA after the 18 hours.
The efflux of hoxLDL by macrophage cells was assayed by incubating fluorescently labeled hoxLDL (10 ug/mL) with cells for 2 hours at 37 C and 5% CO2. […] The images were analyzed with Image Pro Plus 5.1 software (Media Cybernetics, San Diego, Calif.) and normalized with cell number and compared to the control sample wherein no NAPs or ligand was administered.

[2] = tested on: THP-1 macrophages; assay: Efflux of high density lipoproteins (HDL secretion); format: cell-based, human; conditions: macrophages pre-loaded with hoxLDL 30 μg/ml, ApoA1 present
Procedure: In brief, differentiated THP-1 macrophages were pre-incubated with 30 μg/ml highly oxidized LDL at 37° C. in serum-free RPMI 1640 for 24 hr. Next, NAPs at 10^−6 M and 10 ug/mL ApoA1 with or without 10^−7 M GW3965 were added to each well and incubated for a further 24 hours. The cell medium was then removed for analysis using the Biovision HDL and LDL/VLDL Cholesterol Quantification kit (BioVision, CA). The remaining macrophages were lysed using 0.03 g sodium dodecyl sulfate (SDS) in 30 ml sodium hydroxide (NaOH, 0.1N). The protein content was measured with the Modified Lowry protein assay (Pierce, Ill.) and the HDL secretion results were normalized per mg cell protein.

[3] = tested on: THP-1 macrophages; assay: GW internalization study (multiphoton imaging); format: cell-based, human; conditions: 5 hr, polymer 10^-6 M
Procedure: In brief, differentiated THP-1 macrophages were incubated with NAPs at 10^−6 M and/or 10^−7M GW3965 for 5 hr in serum-free RPMI at 37° C. Cells were washed and fixed and multiphoton imaging to detect internalized GW3965 was performed on a Leica TCS SP2 system (Leica Microsystems, Inc., Exton, Pa.). The cells were illuminated using a titanium: sapphire femtosecond laser with a tunable wavelength from 780 nm to 920 nm (Mai Tai, repetition rate 80 Mhz, 100 fs pulse duration, 800 mW) and 470-500 nm emission.

[4] = tested on: LXRalpha; conditions: GW3965 at concentrations as high as 1*10^-6 M; cited from earlier work
[5] = tested on: ABCA1; conditions: GW3965 at concentrations as high as 1*10^-6 M; cited from earlier work

O=C(O)Cc1cccc(OCCCN(Cc2cccc(C(F)(F)F)c2Cl)CC(c2ccccc2)c2ccccc2)c1 [GW3965]
hoxLDL efflux (in words) ([1]; 5 hours): not effective | less hoxLDL within the cells / cholesterol released (efflux) versus nothing administered ([1]; hoxLDL 10 ug/mL 2 h, then test condition 5 h): 4% | HDL secreted versus 100 percent baseline (in words) [2]: not significantly different | internalization of GW3965 by macrophages (multiphoton images, in words) [3]: minimal uptake; also recorded: no drug uptake | LXRalpha increase in HepG2 cells [4]: ≤ 3 fold | ABCA1 increase in HepG2 cells [5]: ≤ 6 fold
